Results taken from patent EP4748840A1, “IMIDAZO[1,2-A]PYRIDINE TYPE IRAK DEGRADATION AGENT AND USE THEREOF” (TAINUORUI (TIANJIN) BIOTECHNOLOGY CO., LTD, priority 2023, dated 2025).

Legend:
[1] = biological target: T1, IRAK4 (Homo sapiens, UniProt Q9NWZ3); experiment: HiBiT-based intracellular degradation assay of THP1-HIBiT-IRAK4 cells; format: cell-based; conditions: half-maximal degradation concentration of IRAK4 protein, 24 h incubation
T1 construct: expressed in transfected cells; host or cells: THP1 (THP1-HIBiT-IRAK4 engineered line)
T1 sequence (Q9NWZ3 1-460): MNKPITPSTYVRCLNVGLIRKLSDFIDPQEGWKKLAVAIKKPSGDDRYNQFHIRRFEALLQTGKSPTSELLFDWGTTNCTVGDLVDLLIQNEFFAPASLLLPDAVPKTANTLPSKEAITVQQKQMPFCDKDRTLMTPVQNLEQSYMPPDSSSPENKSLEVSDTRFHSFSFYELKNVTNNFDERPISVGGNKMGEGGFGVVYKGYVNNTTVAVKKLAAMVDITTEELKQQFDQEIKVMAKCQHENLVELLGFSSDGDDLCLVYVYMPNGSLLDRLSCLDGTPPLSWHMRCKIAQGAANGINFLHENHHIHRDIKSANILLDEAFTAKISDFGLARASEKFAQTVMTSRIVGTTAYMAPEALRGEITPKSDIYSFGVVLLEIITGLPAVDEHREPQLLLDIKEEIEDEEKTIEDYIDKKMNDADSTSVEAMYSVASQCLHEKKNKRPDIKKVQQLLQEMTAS
Experimental: HiBiT-based intracellular degradation assay of THP1-HIBiT-IRAK4 cells
THP1-HIBiT-IRAK4 cells were cultured in RPMI 1640 medium supplemented with 10% fetal bovine serum (FBS) and 1% penicillin-streptomycin (PS) (37°C and 5% CO2). The THP1-HIBiT-IRAK4 cells were inoculated in a 384-well plate at 5000 cells/40 µL/well. Compound solutions with different concentrations were added at 40 nL/well and incubated for 24 h at 37°C in 5% CO2. HiBiT lysis detection reagents were added to the wells, the plate was incubated for 30 min at room temperature, and luminescence values were read on Envision. [formula]
The DC50 (half-maximal degradation concentration) of each compound was obtained using XLfit software and the following nonlinear fitting equation: Y = bottom + (top−bottom)/(1+10^(∧)((LogDC50−X)×Hillslope)). [formula]
X denotes a log value of the compound concentration.
Y denotes the degradation rate.
Table 1 lists the results of DC50 values of IRAK4 protein degradation. […]

[2] = Liver microsomal stability assay (mouse); format: in vitro ADME; conditions: Mouse liver microsomes 0.5 mg/mL, NADPH and UDPGA, 1 µM compound
Experimental: (§1) Liver microsomal stability assay
(§2) Microsomes were stored in a -80°C refrigerator, thawed in a 37°C water bath before use, and placed on ice after thawing. All other reagents were purchased from local suppliers.
(§3) In step 1, a reaction system was configured as follows:
(§4) In step 2, 40 µL of 10 mM NADPH solution and 40 µL of 20 mM UDPGA solution were added to the above reaction system, where the final concentrations of NADPH and UDPGA were 1 mM and 2 mM, respectively. 80 µL of ultrapure water was used as negative control to replace the NADPH and UDPGA solutions. The reaction system was pre-incubated for 10 min in a 37°C water bath. […]
(§5) All data calculations were performed using Microsoft Excel software. Peak areas were determined from extracted ion chromatograms and used for calculating the remaining percentage at each time point.
(§6) The remaining percentage was calculated by the following formula: remaining percentage (%) = (peakarearatiotime point/peakarearatio0 min) × 100. […]
(§7) An elimination rate constant (k) was determined through linear fitting of a natural logarithm of the remaining percentage of a parent drug versus time.
(§8) The half-life t1/2 was calculated from the elimination rate constant: t1/2 = 0.693/k.
(§9) The in vitro intrinsic clearance (µL/min/mg) was calculated by the following formula: invitroCLint = kV/N. [formula] […]

[3] = Liver microsomal stability assay (human); format: in vitro ADME; conditions: Human liver microsomes 0.5 mg/mL, NADPH and UDPGA, 1 µM compound
Experimental: as §1, §2, §3, §4, §5, §6, §7, §8, §9

[4] = In vivo pharmacokinetic study in mice; conditions: male CD1 mice
Experimental: In vivo pharmacokinetic study
The pharmacokinetic behaviors of Example 1 and Example 15 in mice were studied using the following experimental protocol to evaluate their pharmacokinetic characteristics.
The mice had free access to food and water before the test.
(§10) Approximately 0.03 mL of venous blood was collected from the dorsal metatarsal vein of each mouse separately after 0.033 h, 0.083 h, 0.25 h, 0.5 h, 1 h, 2 h, 4 h, 8 h, and 24 h since intravenous injection. The blood was placed in an EDTA-K2 tube and centrifuged for 5 min at 4000 g and 4°C. The plasma was separated. The concentration of the compound in the plasma was determined through liquid chromatography-tandem mass spectrometry.
as §10, with “after” for “after 0.033 h,”, “oral administration.” for “intravenous injection.”

[5] = Liver microsomal stability assay (monkey); format: in vitro ADME; conditions: Monkey liver microsomes 0.5 mg/mL, NADPH and UDPGA, 1 µM compound
Experimental: as §1, §2, §3, §4, §5, §6, §7, §8, §9

[6] = Liver microsomal stability assay (rat); format: in vitro ADME; conditions: Rat liver microsomes 0.5 mg/mL, NADPH and UDPGA, 1 µM compound
Experimental: as §1, §2, §3, §4, §5, §6, §7, §8, §9

[7] = Liver microsomal stability assay (dog); format: in vitro ADME; conditions: Dog liver microsomes 0.5 mg/mL, NADPH and UDPGA, 1 µM compound
Experimental: as §1, §2, §3, §4, §5, §6, §7, §8, §9

[8] = mouse, plasma, Intravenous Injection (2 mg/kg)

DC50 [1]: 1.62 nM
half-life at 1 µM [2]: 2.39 h
microsomal CLint at 1 µM [2]: 9.67 µL/min/mg
half-life at 1 µM [3]: 6.68 h
microsomal CLint at 1 µM [3]: 3.46 µL/min/mg
F ([4]; oral bioavailability, Oral Administration (20 mg/kg) vs Intravenous Injection (2 mg/kg)): 61.7%
clearance [4, 8]: 37.2 mL/min/kg
half-life [4, 8]: 8.05 h
half-life ([4]; mouse, plasma, Oral Administration (20 mg/kg)): 8.01 h
AUC(0-t) ([4]; mouse, Intravenous Injection (2 mg/kg), plasma): 870 ng·h/mL
AUC(0-t) ([4]; mouse, Oral Administration (20 mg/kg), plasma): 4760 ng·h/mL
half-life at 1 µM [5]: 3.2 h
microsomal CLint at 1 µM [5]: 7.22 µL/min/mg
half-life at 1 µM [6]: 2.23 h
microsomal CLint at 1 µM [6]: 10.4 µL/min/mg
half-life at 1 µM [7]: 4.33 h
microsomal CLint at 1 µM [7]: 5.34 µL/min/mg
Structure (SMILES): CC(C)(O)c1cc2nc(C3CCN(CC4CCN(c5cc6c(cc5F)C(=O)N(C5CCC(=O)NC5=O)C6=O)CC4)CC3)cn2cc1NC(=O)c1cccc(C(F)(F)F)n1 (centres unmarked) [Example 15, N-(2-(1-((1-(2-(2,6-dioxopiperidin-3-yl)-6-fluoro-1,3-dioxoisoindolin-5-yl)piperidin-4-yl)methyl)piperidin-4-yl)-7-(2-hydroxypropan-2-yl)imidazo[1,2-a]pyridin-6-yl)-6-(trifluoromethyl)pyridine-2-carboxamide]
